EP0973746B1, “SUBSTITUTED 3-CYANO QUINOLINES” (Wyeth Holdings Corporation, priority 1997, dated 1998)
In brackets after ≈: the same amount, converted by molar mass. Where two headings read alike, the source gives them in different places.

Columns and labels:
HTB161 = test: Inhibition of cancer cell growth as measured by cell number, HTB161; assay type: cell-based; conditions: Homo sapiens, read-out: IC50 HTB161
MCF7 = test: Inhibition of cancer cell growth as measured by cell number, MCF7; assay type: cell-based, human; conditions: Homo sapiens, MCF7, 48 h;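 note: MCF7 was included as a line with little or no EGFR or HER2/neu expression, in contrast to the receptor-overexpressing lines of the panel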
Description: (§1) The cell lines were chosen since they overexpressed epidermal growth factor receptor (EGFR) (i.e. A431) or HER2/neu (SKBR3), or had little to no expression of the these receptors (SW620, LOX, MCF7).

A549 = test: Inhibition of cancer cell growth as measured by cell number, A549; assay type: cell-based; conditions: Homo sapiens, read-out: IC50 A549
HCT15 = test: Inhibition of cancer cell growth as measured by cell number, HCT15; assay type: cell-based; conditions: Homo sapiens, read-out: IC50 HCT15
LS174T = test: Inhibition of cancer cell growth as measured by cell number, LS174T; assay type: cell-based; conditions: Homo sapiens
CACO2 = test: Inhibition of cancer cell growth as measured by cell number, CACO2; assay type: cell-based; conditions: Homo sapiens, read-out: IC50 CACO2
A431 [1] = test: Inhibition of cancer cell growth as measured by cell number, A431; assay type: cell-based, human; conditions: Homo sapiens, A-431, 48 h;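 note: human A431 line, picked because it overexpresses epidermal growth factor receptor (EGFR)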
Description: as §1

SW620 = test: Inhibition of cancer cell growth as measured by cell number, SW620; assay type: cell-based, human; conditions: Homo sapiens, SW-620, 48 h;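 note: SW620 was included as a cell line with little or no EGFR or HER2/neu expression, in contrast to receptor-overexpressing lines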
Description: as §1

MIP = test: Inhibition of cancer cell growth as measured by cell number, MIP; assay type: cell-based; conditions: Homo sapiens; cell number, Sulforhodamine B, 48 hours exposure; Table 4; read-out: IC50 MIP
B7474 = test: Inhibition of cancer cell growth as measured by cell number, B7474; assay type: cell-based; conditions: Homo sapiens, read-out: IC50 B7474
A27805 = test: Inhibition of cancer cell growth as measured by cell number, A27805; assay type: cell-based; conditions: Homo sapiens, read-out: IC50 A27805
NEC = test: Inhibition of cancer cell growth as measured by cell number, NEC; assay type: cell-based; conditions: Homo sapiens, read-out: IC50 NEC
SKBR3 [2] = test: Inhibition of cancer cell growth as measured by cell number, SKBR3; assay type: cell-based, human; conditions: Homo sapiens;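 note: SK-BR-3 cells were selected as a line overexpressing HER2/neu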
Description: as §1

CCL228 = test: Inhibition of cancer cell growth as measured by cell number, CCL228; assay type: cell-based; conditions: Homo sapiens, read-out: IC50 CCL228
SW948 = test: Inhibition of cancer cell growth as measured by cell number, SW948; assay type: cell-based; conditions: Homo sapiens, read-out: IC50 SW948
DU145 = test: Inhibition of cancer cell growth as measured by cell number, DU145; assay type: cell-based; conditions: Homo sapiens, read-out: IC50 DU145
NHEK = test: Inhibition of cell growth by incorporation of [3H]-thymidine, NHEK; assay type: cell-based, human; conditions: read-out: IC50 NHEK
Protocol: (§2) Representative compounds of this invention were evaluated for their ability to inhibit the growth of the cell lines described below in vitro. The inhibition is quantitated by measuring the decrease in the incorporation of radio-labeled thymidine when the cells are grown in the presence of the inhibitor. […] Cells were routinely grown in a humidified incubator in 5% CO2 in air.
(§3) Cells were seeded at 10,000 cells/well in 96 well plates in complete media and allowed to grow to log phase. At this stage the complete media was replaced with media containing 0.5% FBS (for cells growing in 10% FBS) or media lacking epidermal growth factor (EGF) (for cells growing in serum free media). […] Media with test compound was then removed and complete media was added back. The cells were allowed to grow for 18 hours. This is followed by incubation in [^3H]thymidine (1mCi/ml in serum/EGF media) for 4 hours. Cells were lysed in 0.5 M NaOH for at least 30 min at 37°C and radioactivity analyzed.
(§4) The % inhibition of the compound evaluated was determined for at least three different concentrations and the IC50 value evaluated from the dose response curve. […] CPM(control) is in units of counts per minute and is a number expressing the amount of [^3H]thymidine incorporated onto the DNA when cells are grown in the absence of test compound as measured by liquid scintillation counting.

COLO205 = test: Inhibition of cancer cell growth as measured by cell number, COLO205; assay type: cell-based; conditions: Homo sapiens, read-out: IC50 COLO205
CX1 = test: Inhibition of cancer cell growth as measured by cell number, CX1; assay type: cell-based; conditions: Homo sapiens, read-out: IC50 CX1
A2780DDP = test: Inhibition of cancer cell growth as measured by cell number, A2780DDP; assay type: cell-based; conditions: Homo sapiens, read-out: IC50 A2780DDP
LNCAP = test: Inhibition of cancer cell growth as measured by cell number, LNCAP; assay type: cell-based; conditions: Homo sapiens
T47D = test: Inhibition of cancer cell growth as measured by cell number, T47D; assay type: cell-based; conditions: Homo sapiens
LOX = test: Inhibition of cancer cell growth as measured by cell number, LOX; assay type: cell-based, human; conditions: Homo sapiens, LOX, 48 h;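 note: LOX cells served as a line with low or absent EGFR and HER2/neu expression, in contrast to receptor-overexpressing lines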
Description: as §1

[3] = target: epidermal growth factor receptor kinase (Homo sapiens, UniProt P00533); test: biochemical
Sequence of epidermal growth factor receptor kinase (P00533 25-1210): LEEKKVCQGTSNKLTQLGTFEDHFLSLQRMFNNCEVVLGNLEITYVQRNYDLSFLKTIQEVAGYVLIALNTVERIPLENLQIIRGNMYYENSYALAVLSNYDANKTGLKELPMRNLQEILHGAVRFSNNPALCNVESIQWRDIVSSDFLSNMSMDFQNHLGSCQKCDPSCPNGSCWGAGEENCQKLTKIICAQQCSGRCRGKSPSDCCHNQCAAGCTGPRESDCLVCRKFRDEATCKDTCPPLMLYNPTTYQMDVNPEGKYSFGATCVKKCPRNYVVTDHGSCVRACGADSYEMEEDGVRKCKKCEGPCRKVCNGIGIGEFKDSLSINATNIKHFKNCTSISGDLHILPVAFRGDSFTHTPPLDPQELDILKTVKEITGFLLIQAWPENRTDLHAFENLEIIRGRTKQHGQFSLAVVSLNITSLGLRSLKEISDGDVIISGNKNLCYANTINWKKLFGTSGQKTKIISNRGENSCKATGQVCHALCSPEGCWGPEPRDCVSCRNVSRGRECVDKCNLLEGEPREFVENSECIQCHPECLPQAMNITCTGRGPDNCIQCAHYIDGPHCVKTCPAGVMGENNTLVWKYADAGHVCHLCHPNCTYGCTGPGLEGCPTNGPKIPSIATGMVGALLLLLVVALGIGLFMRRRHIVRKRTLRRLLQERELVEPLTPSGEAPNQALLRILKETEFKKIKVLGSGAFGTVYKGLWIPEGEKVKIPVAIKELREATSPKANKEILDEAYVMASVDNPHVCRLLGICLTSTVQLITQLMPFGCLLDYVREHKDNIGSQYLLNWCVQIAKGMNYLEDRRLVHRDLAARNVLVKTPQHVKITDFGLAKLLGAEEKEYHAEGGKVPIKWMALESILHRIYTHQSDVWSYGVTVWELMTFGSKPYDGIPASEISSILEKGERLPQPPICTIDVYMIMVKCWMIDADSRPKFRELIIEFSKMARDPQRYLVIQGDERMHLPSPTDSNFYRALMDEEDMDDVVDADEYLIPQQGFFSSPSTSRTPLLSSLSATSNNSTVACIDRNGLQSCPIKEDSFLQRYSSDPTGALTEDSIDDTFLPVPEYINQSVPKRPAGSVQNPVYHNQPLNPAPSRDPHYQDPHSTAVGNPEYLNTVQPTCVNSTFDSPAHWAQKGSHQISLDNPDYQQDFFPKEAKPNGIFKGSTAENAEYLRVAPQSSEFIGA
Protocol: The enzyme was obtained as a membrane extract of A431 cells (American Type Culture Collection, Rockville, MD). A431 cells were grown in T175 flasks to 80% confluency. The cells were washed twice with phosphate buffered saline (PBS) without Ca^2+. Flasks were rotated for 1.5 hours in 20 ml PBS with 1.0 mM ethylenediaminetetraacetic acid (EDTA) at room temperature and centrifuged at 600g for 10 minutes. The cells were solubilized in 1 ml per 5 x 10^6 cells of cold lysis buffer {10mM 4-(2-hydroxyethyl)-1-piperazineethane-sulfonic acid (HEPES), pH 7.6, 10 mM NaCl, 2mM EDTA, 1mM phenylmethyl-sulfonyl-fluoride (PMSF), 10 mg/ml aprotinin, 10 mg/ml leupeptin, 0.1 mM sodium orthovanadate} in a Dounce homogenizer with 10 strokes on ice. The lysate was centrifuged at 600g for 10 minutes first to clear cell debris and the supernatant further centrifuged at 100,000 g for 30 min at 4°C. The membrane pellet was suspended in 1.5 ml HNG buffer (50 mM HEPES, pH 7.6, 125 mM NaCl, 10% glycerol). The membrane extract was divided into aliquots, immediately frozen in liquid nitrogen and stored at -70°C.
Compounds to be evaluated were made into 10 mg/ml stock solutions in 100% dimethylsulfoxide (DMSO). Prior to experiment, stock solutions were diluted to 500 mM with buffer (30 mM Hepes pH 7.4) and then serially diluted to the desired concentration.
An aliquot of the A431 membrane extract (10 mg/ml) was diluted in 30 mM HEPES (pH 7.4) to give a protein concentration of 50 ug/ml. […] To this was added the ^33p-ATP (10 mCi/ml) diluted 1:10 in assay buffer along with the substrate peptide at a concentration of 0.5 mM (control reactions get no test compound) and the reaction was allowed to proceed for 30 min at 30°C. The reaction was stopped with 10% TCA and left on ice for at least 10 min after which tubes were microcentrifuged at full speed for 15 min. The a portion of the supernatants were spotted on P81 phosphocellulose discs and washed twice in 1% acetic acid then water for 5 min each followed by scintillation counting. […] The % inhibition of the test compound was determined for at least three different concentrations and the IC50 value was evaluated from the dose response curve. […] CPM(control) is in units of counts per minute and was a number expressing the amount of radiolabeled ATP (g-^33P) incorporated into the RR-SRC peptide substrate by the enzyme after 30 minutes at 30°C in the absence of test compound as measured by liquid scintillation counting. The CPM values were corrected for the background counts produced by ATP in the absence of the enzymatic reaction. The IC50 values reported in TABLE 1 are averages of the number of tests conducted.

LX1 = test: Inhibition of cancer cell growth as measured by cell number, LX1; assay type: cell-based; conditions: Homo sapiens, read-out: IC50 LX1
PC3 = test: Inhibition of cancer cell growth as measured by cell number, PC3; assay type: cell-based; conditions: Homo sapiens, read-out: IC50 PC3
[4] = target: recombinant human MEK 1 (MAPKK) and recombinant human ERK2 (MAPK); test: Mitogen Activated Protein Kinase (MAPK) assay, two component coupled MEK 1 / ERK2; assay type: biochemical; conditions: separate entries for the same compound = evaluated more than one time;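 note: MEK 1-activated ERK2 phosphorylates MBP or Myc peptide with 33P-ATP, filter capture and scintillation counting, inhibitor preincubated with ERK2 30 min at 0 °C, inhibition relative to uninhibited control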
HL60 = test: Inhibition of cancer cell growth as measured by cell number, HL60; assay type: cell-based; conditions: Homo sapiens, read-out: IC50 HL60
[5] = test system: human epidermoid tumors (A431); test: In vivo inhibition of the growth of human epidermoid tumors (A431); conditions: 80 mg/kg administered on days 1, 5, and 9, IP
Procedure, shortened: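 Female BALB/c nu/nu mice from Charles River were injected subcutaneously with 5 X 10^6 human epidermoid (A431) tumor cells. Once tumors weighed 100 to 150 mg, animals were randomized into treatment groups on day zero, and untreated controls were included. Tumor mass, calculated as (length X width^2)/2, was measured every 7 days for 28 days after staging. Relative growth was mean mass on days 7, 14, 21 and 28 divided by the day-zero mean.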

A431 [6] = test: Inhibition of cell growth by incorporation of [3H]-thymidine, A431; assay type: cell-based, human
Protocol: as §2, §3, §4

CCRF-CFM = test: Inhibition of cancer cell growth as measured by cell number, CCRF-CFM; assay type: cell-based; conditions: Homo sapiens, read-out: IC50 CCRF-CFM
SKBR3 [7] = test: Inhibition of cell growth by incorporation of [3H]-thymidine, SKBR3; assay type: cell-based, human
Protocol: as §2, §3, §4

NEU-3T3 = test: Inhibition of cell growth by incorporation of [3H]-thymidine, Neu-3T3; assay type: cell-based, mouse; conditions: [3H]-thymidine incorporation
Protocol: as §2, §3, §4

[8] = cell number, Sulforhodamine B, 48 hours exposure, Table 4
[9] = cell number, Sulforhodamine B, 48 hours exposure, Table 6

C=CC(=O)Nc1ccc2ncc(C#N)c(Nc3cccc(Br)c3)c2c1 [Example 18, N-[4-[(3-Bromophenyl)amino]-3-cyano-6-quinolinyl]-2-propenamide]
IC50 (HTB161; 48 h): 0.415 µg/mL (≈ 1.05 µM) | IC50 (MCF7; read-out: IC50 MCF7, cell number, Sulforhodamine B, 48 hours exposure, Table 5): 2.17 µg/mL (≈ 5.52 µM) | IC50 (A549; A549, 48 h): 1.61 µg/mL (≈ 4.1 µM) | IC50 (HCT15; HCT-15, 48 h): 1.67 µg/mL (≈ 4.25 µM) | IC50 (LS174T; 48 h, read-out: IC50 LS174T): 1.59 µg/mL (≈ 4.05 µM) | IC50 (CACO2; Caco-2, 48 h): 0.576 µg/mL (≈ 1.46 µM) | IC50 (A431 [1]; read-out: IC50 A431, cell number, Sulforhodamine B, 48 hours exposure, Table 6): 0.249 µg/mL (≈ 0.633 µM) | IC50 (SW620; read-out: IC50 SW620, cell number, Sulforhodamine B, 48 hours exposure, Table 4): 1.4 µg/mL (≈ 3.55 µM) | IC50 (MIP): 1.47 µg/mL (≈ 3.74 µM) | IC50 (B7474; 48 h): 0.152 µg/mL (≈ 0.387 µM) | IC50 (A27805; 48 h): 0.628 µg/mL (≈ 1.6 µM) | IC50 (NEC; 48 h): 1.41 µg/mL (≈ 3.6 µM) | IC50 (SKBR3 [2]; SK-BR-3, 48 h, read-out: IC50 SKBR3, cell number, Sulforhodamine B, 48 hours exposure, Table 7): 1.85 µg/mL (≈ 4.71 µM) | IC50 (CCL228; 48 h): 1.17 µg/mL (≈ 2.98 µM) | IC50 (SW948; SW948, 48 h): 1.94 µg/mL (≈ 4.93 µM) | IC50 (DU145; DU-145, 48 h): 0.322 µg/mL (≈ 0.818 µM) | IC50 (NHEK; Homo sapiens): 7 nM | IC50 (COLO205; COLO 205, 48 h): 1.9 µg/mL (≈ 4.84 µM) | IC50 (CX1; CX-1, 48 h): 1.56 µg/mL (≈ 3.97 µM) | IC50 (A2780DDP; 48 h): 0.884 µg/mL (≈ 2.25 µM) | IC50 (LNCAP; 48 h, read-out: IC50 LNCAP): 0.146 µg/mL (≈ 0.372 µM) | IC50 (T47D; 48 h, read-out: IC50 T47D): 1.31 µg/mL (≈ 3.34 µM) | IC50 (LOX; read-out: IC50 LOX, cell number, Sulforhodamine B, 48 hours exposure, Table 6): 0.0851 µg/mL (≈ 0.216 µM) | IC50 [3]: 0.021 nM | IC50 (LX1; LX-1, 48 h): 1.12 µg/mL (≈ 2.84 µM) | IC50 (PC3; PC-3, 48 h): 2.35 µg/mL (≈ 5.97 µM) | IC50 [4]: > 100000 nM | IC50 (HL60; HL-60, 48 h): 1.43 µg/mL (≈ 3.63 µM) | reduced tumor size ([5]; day 7): 29% | reduced tumor size ([5]; day 14, p <0.01): 45% | Tumor growth versus control ([5]; days 21 and 28): not reduced versus control | IC50 (A431 [6]; Homo sapiens, A-431, read-out: IC50 A431): 0.01 nM | IC50 (CCRF-CFM; 48 h): 1.04 µg/mL (≈ 2.64 µM)

CCOC(=O)c1cnc2cc(OC)c(OC)cc2c1O [Example 26, 3-Carbethoxy-4-hydroxy-6.7-dimethoxyquinoline]
IC50 (SKBR3 [7]; [3H]-thymidine incorporation): > 50000 nM | IC50 (NEU-3T3): > 50000 nM | IC50 (NHEK; [3H]-thymidine incorporation): 400 nM | IC50 (A431 [6]; [3H]-thymidine incorporation, A431, read-out: IC50 A431): 100 nM

COc1cc2ncc(C#N)c(Nc3cccc(Br)c3)c2cc1OC [Example 31, 4-[(3-Bromophenyl)amino]-6,7-dimethoxy-3-quinolinecarbonitrile]
IC50 (SKBR3 [7]; Homo sapiens, SK-BR-3, [3H]-thymidine incorporation): 25000 nM | IC50 (HTB161; [8]): 0.793 µg/mL (≈ 2.06 µM) | IC50 (MCF7; cell number, Sulforhodamine B, 48 hours exposure, Table 5, read-out: IC50 MCF7): 5.66 µg/mL (≈ 14.7 µM) | IC50 (MCF7; cell number, Sulforhodamine B, 48 hours exposure, Table 8, read-out: IC50 MCF7): 6.04 µg/mL (≈ 15.7 µM) | IC50 (A549; A549, cell number, Sulforhodamine B, 48 hours exposure, Table 6): 2.27 µg/mL (≈ 5.91 µM) | IC50 (HCT15; HCT-15, cell number, Sulforhodamine B, 48 hours exposure, Table 5): 0.727 µg/mL (≈ 1.89 µM) | IC50 (LS174T; cell number, Sulforhodamine B, 48 hours exposure, Table 5, read-out: IC50 LS174T): 0.885 µg/mL (≈ 2.3 µM) | IC50 (CACO2; Caco-2, cell number, Sulforhodamine B, 48 hours exposure, Table 5): 0.925 µg/mL (≈ 2.41 µM) | IC50 (A431 [1]; cell number, Sulforhodamine B, 48 hours exposure, Table 6, read-out: IC50 A431): 0.434 µg/mL (≈ 1.13 µM) | IC50 (A431 [1]; cell number, Sulforhodamine B, 48 hours exposure, Table 8, read-out: IC50 A431): 0.1 µg/mL (≈ 0.26 µM) | IC50 (SW620; cell number, Sulforhodamine B, 48 hours exposure, Table 4, read-out: IC50 SW620): 4.54 µg/mL (≈ 11.8 µM) | IC50 (SW620; cell number, Sulforhodamine B, 48 hours exposure, Table 8, read-out: IC50 SW620): 0.82 µg/mL (≈ 2.13 µM) | IC50 (MIP): 0.748 µg/mL (≈ 1.95 µM) | IC50 (B7474; [9]): 1.58 µg/mL (≈ 4.1 µM) | IC50 (A27805; [8]): 2.03 µg/mL (≈ 5.28 µM) | IC50 (NEC; [9]): 2.23 µg/mL (≈ 5.81 µM) | IC50 (SKBR3 [2]; SK-BR-3, cell number, Sulforhodamine B, 48 hours exposure, Table 8, read-out: IC50 SKBR3): 0.48 µg/mL (≈ 1.25 µM) | IC50 (CCL228; cell number, Sulforhodamine B, 48 hours exposure, Table 5): 4.91 µg/mL (≈ 12.8 µM) | IC50 (SW948; SW948, cell number, Sulforhodamine B, 48 hours exposure, Table 5): 5.48 µg/mL (≈ 14.3 µM) | IC50 (DU145; DU-145, cell number, Sulforhodamine B, 48 hours exposure, Table 7): 0.585 µg/mL (≈ 1.52 µM) | IC50 (NHEK; Homo sapiens, [3H]-thymidine incorporation): 3 nM | IC50 (COLO205; COLO 205, cell number, Sulforhodamine B, 48 hours exposure, Table 4): 3.1 µg/mL (≈ 8.06 µM) | IC50 (CX1; CX-1, cell number, Sulforhodamine B, 48 hours exposure, Table 4): 0.97 µg/mL (≈ 2.52 µM) | IC50 (A2780DDP; [8]): 1.17 µg/mL (≈ 3.03 µM) | IC50 (LNCAP; cell number, Sulforhodamine B, 48 hours exposure, Table 7, read-out: IC50 LNCAP): 0.772 µg/mL (≈ 2.01 µM) | IC50 (T47D; cell number, Sulforhodamine B, 48 hours exposure, Table 6, read-out: IC50 T47D): 3.33 µg/mL (≈ 8.67 µM) | IC50 (LOX; cell number, Sulforhodamine B, 48 hours exposure, Table 6, read-out: IC50 LOX): 0.871 µg/mL (≈ 2.27 µM) | IC50 (LOX; cell number, Sulforhodamine B, 48 hours exposure, Table 8, read-out: IC50 LOX): 1.65 µg/mL (≈ 4.29 µM) | IC50 [3]: 1.5 nM | IC50 (LX1; LX-1, cell number, Sulforhodamine B, 48 hours exposure, Table 6): 6.88 µg/mL (≈ 17.9 µM) | IC50 (PC3; PC-3, cell number, Sulforhodamine B, 48 hours exposure, Table 7): 5.16 µg/mL (≈ 13.4 µM) | IC50 (HL60; HL-60, cell number, Sulforhodamine B, 48 hours exposure, Table 7): 0.894 µg/mL (≈ 2.33 µM) | IC50 (A431 [6]; Homo sapiens, A-431, [3H]-thymidine incorporation, A431, read-out: IC50 A431): 200 nM | IC50 (CCRF-CFM; cell number, Sulforhodamine B, 48 hours exposure, Table 7): 3.19 µg/mL (≈ 8.3 µM)
